The data set can be described thus: Stability experiment for the addition of tri-n-butylamine: sealed storage at 40-50° C., content (purity) by 1H-NMR. It counts as physicochemical. On the procedure: From the point of view of securing storage stability, for the amount of the first tertiary amine added, at least 2.0 mol % is added based on Compound (6), preferably at least 3.0 mol %, more preferably at least 4.0 mol %, and even more preferably at least 5.0 mol %. Note that evaluation of storage stability can be carried out by calculation of peak area derived from Compound (6) by gas chromatography or high performance liquid chromatography or calculation of integration value by 1H-NMR or P-NMR measurement before and after storage.
Potassium di-tert-butyl phosphate (6 g), dipotassium hydrogenphosphate (16.6 g), tetrabutylammonium hydrogen sulfate (0.81 g), tert-butyl methyl ether (28 mL) and water (21 mL) were added in a 100 mL two-neck round bottom flask equipped with a thermometer, and stirred under cooling with a water bath. At an internal temperature of 21° C., a solution of chloromethyl chlorosulfonate (5.88 g) dissolved in tert-butyl methyl ether (5.88 mL) was added dropwise over two hours at an internal temperature of 25° C. or lower. After termination of the drop wise addition, the solution was stirred for two hours, water (21 mL) and tert-butyl methyl ether (28 mL) were added thereto, the lower layer was separated and the organic layer was washed with an aqueous solution of 2M dipotassium hydrogen phosphate (21 mL). After washing twice with water (21 mL), bath temperature was set to 35° C., and the solution was concentrated under a reduced pressure to obtain 5.38 g of the title compound (yield: 86%). […]
As a result, contents (purity) of respectively 92% and 96% prior to storage were 89% and 70% after sealed storage at 40° C. for 12 hours and further at 50° C. for 12 hours, and were 87% and 0% (completely degraded) after sealed storage further at 50° C. for 10 hours, such that the one added with tri-n-butylamine was stable. The content (purity) was calculated by 1H-NMR measurements with 4-thiomethyl acetophenone as internal standard substance.

Experimental findings from patent US20100094001A1, “C[…]-IMPROVED CH[…] DERIVATIVE AND PROCESS FOR PRODUCING SAME” (Eisai R&D Management Co., Ltd., priority 2007, published 2010) are described below.

Consider `CC(C)(C)OP(=O)(OCCl)OC(C)(C)C` [Not added, di-tert-butyl chloromethyl phosphate], for which the “Content (%)” value (Initial (prior to storage)) turned out to be 96%; the “Content (%)” value (Sealed storage at 40° C. for 12 hours then further at 50° C. for 12 hours) stood at 70%; the “Content (%)” value (Sealed storage further at 50° C. for 10 hours (after 40° C. 12 hours and 50° C. 12 hours)) was determined as 0%.
